# Experimental data as given in patent US6890920B2, “Quaternary ammonium compounds” (Pharmacia & Upjohn Company, priority 1992, dated 2005).
# Read-outs that look alike come from different tables or passages of the source.
# Key:
# muscarinic receptor M2 = molecular target: T1, muscarinic receptor M2 (Homo sapiens, UniProt P08172); assay: Muscarinic receptor subtype M2 binding assay, radioligand displacement
# T1 construct: expressed in transfected cells
# T1 sequence (P08172 1-466): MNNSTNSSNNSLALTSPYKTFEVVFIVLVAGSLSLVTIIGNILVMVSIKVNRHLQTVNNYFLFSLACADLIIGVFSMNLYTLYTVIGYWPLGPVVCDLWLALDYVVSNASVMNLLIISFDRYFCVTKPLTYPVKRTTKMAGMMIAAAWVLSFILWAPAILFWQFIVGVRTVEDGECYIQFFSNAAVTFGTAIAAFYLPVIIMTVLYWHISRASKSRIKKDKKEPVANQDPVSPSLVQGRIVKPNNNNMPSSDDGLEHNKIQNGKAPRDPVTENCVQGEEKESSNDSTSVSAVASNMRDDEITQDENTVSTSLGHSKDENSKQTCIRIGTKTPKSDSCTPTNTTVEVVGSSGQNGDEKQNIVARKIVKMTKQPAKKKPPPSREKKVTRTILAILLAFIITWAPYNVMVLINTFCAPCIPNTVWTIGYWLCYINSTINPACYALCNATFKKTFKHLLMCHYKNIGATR
# Protocol: (§1) Muscarinic receptor subtype M1-M5 binding assays were carried out. Briefly, [3]H-methylscopolamine was allowed to bind to membranes from various recombinant mammalian cell lines, each with an over-expression of a particular receptor subtype.
# (§2) Muscarinic receptor subtype M1-M5 binding assays were performed.
# muscarinic receptor M1 = molecular target: T2, muscarinic receptor M1 (Homo sapiens, UniProt P11229); assay: Muscarinic receptor subtype M1 binding assay, radioligand displacement
# T2 construct: expressed in transfected cells
# T2 sequence (P11229 1-460): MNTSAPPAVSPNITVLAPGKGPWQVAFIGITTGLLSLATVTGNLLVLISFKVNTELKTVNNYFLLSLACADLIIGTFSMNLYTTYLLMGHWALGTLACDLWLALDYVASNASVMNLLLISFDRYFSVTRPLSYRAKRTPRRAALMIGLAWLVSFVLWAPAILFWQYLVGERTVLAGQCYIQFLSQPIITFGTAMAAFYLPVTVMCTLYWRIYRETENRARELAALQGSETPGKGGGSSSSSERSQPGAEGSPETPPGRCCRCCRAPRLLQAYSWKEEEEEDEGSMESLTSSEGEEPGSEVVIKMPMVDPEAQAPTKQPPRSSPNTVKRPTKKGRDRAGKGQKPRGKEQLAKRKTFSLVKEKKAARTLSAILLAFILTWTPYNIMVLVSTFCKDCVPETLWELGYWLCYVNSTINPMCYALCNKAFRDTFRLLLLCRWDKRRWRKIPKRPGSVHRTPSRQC
# Protocol: as §1, §2
# muscarinic receptor M3 = molecular target: T3, muscarinic receptor M3 (Homo sapiens, UniProt P20309); assay: Muscarinic receptor subtype M3 binding assay, radioligand displacement; details: Ki values, receptor subtype M3
# T3 construct: expressed in transfected cells
# T3 sequence (P20309 whole entry): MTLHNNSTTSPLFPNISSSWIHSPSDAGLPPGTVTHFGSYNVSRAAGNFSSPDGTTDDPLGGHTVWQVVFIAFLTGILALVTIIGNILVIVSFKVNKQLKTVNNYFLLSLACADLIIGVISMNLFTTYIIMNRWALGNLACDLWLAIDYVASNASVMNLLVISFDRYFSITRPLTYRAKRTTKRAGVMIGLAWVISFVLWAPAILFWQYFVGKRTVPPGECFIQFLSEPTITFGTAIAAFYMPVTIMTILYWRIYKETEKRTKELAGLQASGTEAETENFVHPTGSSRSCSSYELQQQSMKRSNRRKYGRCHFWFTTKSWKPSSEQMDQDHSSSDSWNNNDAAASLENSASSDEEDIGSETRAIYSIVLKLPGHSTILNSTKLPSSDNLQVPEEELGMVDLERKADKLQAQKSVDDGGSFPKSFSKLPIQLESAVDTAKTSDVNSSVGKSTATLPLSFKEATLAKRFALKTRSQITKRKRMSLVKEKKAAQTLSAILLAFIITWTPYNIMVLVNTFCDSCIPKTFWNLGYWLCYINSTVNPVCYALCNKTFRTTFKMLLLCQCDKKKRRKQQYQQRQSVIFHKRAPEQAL
# Protocol: as §1, §2
# [1] = tested on: methacholine-induced bronchoconstriction in Balb/c mice; assay: Bronchodilatory effect of inhaled compounds, Example II (10 min to 48 h)
# Protocol: Female BALB/c mice, weight range 19-22 g, were obtained from Charles River Laboratories (Kingston, N.C.). They received food and water ad libitum.
# Compounds for aerosol administration were prepared in sterile Dulbecco's Phosphate Buffered Saline.
# Mice were placed in a carousel-style, nose only, exposure chamber and allowed to inhale aerosols for five minutes, using an ICN SPAG-2 nebulizer.
# Bronchoconstriction was induced in mice by administration of an 80 mg/ml methacholine (MC) aerosol into the plethysmograph chambers for 5 minutes. […] The average enhanced pause (lung resistance) was determined. In order to determine the baseline, saline aerosol (without methacholine) was also separately administered to the mice.
# muscarinic receptor M5 = molecular target: T4, muscarinic receptor M5 (Homo sapiens, UniProt P08912); assay: Muscarinic receptor subtype M5 binding assay, radioligand displacement; details: Ki values, receptor subtype M5, [3]H-methylscopolamine displacement, membranes from recombinant mammalian cell lines
# T4 construct: expressed in transfected cells
# T4 sequence (P08912 1-532): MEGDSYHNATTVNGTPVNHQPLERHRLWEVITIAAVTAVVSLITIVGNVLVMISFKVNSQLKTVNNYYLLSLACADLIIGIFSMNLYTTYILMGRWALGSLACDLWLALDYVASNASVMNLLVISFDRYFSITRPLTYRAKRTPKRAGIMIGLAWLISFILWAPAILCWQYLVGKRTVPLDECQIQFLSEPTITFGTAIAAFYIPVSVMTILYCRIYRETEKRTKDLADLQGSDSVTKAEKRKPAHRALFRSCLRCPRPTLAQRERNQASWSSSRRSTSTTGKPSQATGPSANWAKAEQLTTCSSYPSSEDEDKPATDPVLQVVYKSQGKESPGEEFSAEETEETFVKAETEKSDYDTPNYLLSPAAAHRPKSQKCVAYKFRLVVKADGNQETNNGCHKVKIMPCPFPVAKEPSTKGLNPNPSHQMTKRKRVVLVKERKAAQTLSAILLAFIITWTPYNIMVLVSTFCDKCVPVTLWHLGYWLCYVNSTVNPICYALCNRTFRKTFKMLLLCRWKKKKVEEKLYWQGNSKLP
# Protocol: as §1, §2
# muscarinic receptor M4 = molecular target: T5, muscarinic receptor M4 (Homo sapiens, UniProt P08173); assay: Muscarinic receptor subtype M4 binding assay, radioligand displacement
# T5 construct: expressed in transfected cells
# T5 sequence (P08173 1-479): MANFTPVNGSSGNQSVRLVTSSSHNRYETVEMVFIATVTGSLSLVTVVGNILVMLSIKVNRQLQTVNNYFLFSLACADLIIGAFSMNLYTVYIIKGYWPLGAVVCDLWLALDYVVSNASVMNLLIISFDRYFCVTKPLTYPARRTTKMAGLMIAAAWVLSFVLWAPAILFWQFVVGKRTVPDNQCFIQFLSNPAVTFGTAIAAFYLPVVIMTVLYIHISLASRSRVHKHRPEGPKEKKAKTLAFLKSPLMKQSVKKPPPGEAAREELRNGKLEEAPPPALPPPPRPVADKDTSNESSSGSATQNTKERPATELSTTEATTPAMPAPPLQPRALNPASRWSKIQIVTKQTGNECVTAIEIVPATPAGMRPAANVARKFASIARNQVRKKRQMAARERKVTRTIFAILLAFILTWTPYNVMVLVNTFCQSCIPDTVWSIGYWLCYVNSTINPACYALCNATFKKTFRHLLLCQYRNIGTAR
# Protocol: as §1, §2
# [2] = Pharmacokinetics of inhaled quaternary ammonium salts, plasma levels; type: in vivo, Balb/c mice
# Protocol: Blood samples were taken from the mice in example II via cardiac puncture under isoflurane anesthesia at 2.5 minutes, 10 minutes, 30 minutes, 2 hours, 4 hours, 8 hours, or 12 hours after aerosol drug treatment.
# The samples were collected in tubes containing EDTA and centrifuged at 12000×g for four minutes. Plasma was removed and stored at −70° C. until assay.
# Plasma samples were extracted via a liquid/liquid extraction technique. […] Chromatographically, the analyte and the internal standard were resolved on a Phenomenex Phenyl-Hexyl column using an isocratic elution. The limit of quantitation was 24 pg/ml.
# [3] = Balb/c, mouse, plasma, inhaled, inhalation of 0.072 mg/ml, read-out: Plasma concentration ± std dev
# [4] = Balb/c, mouse, plasma, inhaled, inhalation of 0.144 mg/ml, read-out: Plasma concentration ± std dev
# [5] = Balb/c, mouse, plasma, inhaled, inhalation of 1.44 mg/ml, read-out: Plasma concentration ± std dev
structure (smiles),measurement,setting,value
Cc1ccc(O)c([C@H](CC[N+](C)(C(C)C)C(C)C)c2ccccc2)c1.[I-] [Example 2],Ki,muscarinic receptor M2,0.45 nM
same,Ki,muscarinic receptor M1,0.33 nM
same,Ki,muscarinic receptor M3,0.2 nM
same,"prevention of methacholine-induced bronchoconstriction, time following administration","[1]; inhalation of aerosol from 0.072 mg/ml solution, FIG. 3",8 h
same,"prevention of methacholine-induced bronchoconstriction, time following administration","[1]; inhalation of aerosol from 0.144 mg/ml solution, FIG. 2",24 h
same,"complete block of methacholine-induced bronchoconstriction, time following administration","[1]; inhalation of aerosol from 1.44 mg/ml solution, FIG. 1",36 h
same,Ki,muscarinic receptor M5,0.25 nM
same,Ki,muscarinic receptor M4,0.39 nM
same,concentration at 2.5 min,[2]; [3],0.136 ± 0.038 ng/mL
same,concentration at 10 min,[2]; [3],0.09 ± 0.001 ng/mL
same,concentration at 30 min,[2]; [3],0.081 ± 0.008 ng/mL
same,concentration at 2 h,[2]; [3],0.041 ± 0.006 ng/mL
same,concentration at 4 h,[2]; [3],0.014 ± 0.001 ng/mL
same,concentration at 2.5 min,[2]; [4],0.264 ± 0.021 ng/mL
same,concentration at 10 min,[2]; [4],0.162 ± 0.011 ng/mL
same,concentration at 30 min,[2]; [4],0.112 ± 0.01 ng/mL
same,concentration at 2 h,[2]; [4],0.055 ± 0.007 ng/mL
same,concentration at 4 h,[2]; [4],0.04 ± 0.003 ng/mL
same,concentration at 8 h,[2]; [4],0.012 ± 0.001 ng/mL
same,concentration at 2.5 min,[2]; [5],2.68 ± 0.389 ng/mL
same,concentration at 10 min,[2]; [5],1.4 ± 0.163 ng/mL
same,concentration at 30 min,[2]; [5],1.12 ± 0.042 ng/mL
same,concentration at 2 h,[2]; [5],0.245 ± 0.003 ng/mL
same,concentration at 4 h,[2]; [5],0.157 ± 0.002 ng/mL
same,concentration at 8 h,[2]; [5],0.08 ± 0.002 ng/mL
same,concentration at 12 h,"[2]; Balb/c, mouse, plasma, inhaled, inhalation of 1.44 mg/ml, 12 h, read-out: Plasma concentration ± std dev",0.042 ± 0.002 ng/mL
same,systemic (plasma) exposure,[2]; after aerosol inhalation of 0.072-1.44 mg/ml,very low
